Paper PMC8717366, “Synthesis and Pharmacological Characterization of Visabron, a Backbone Cyclic Peptide Dual Antagonist of α4β1 (VLA-4)/α9β1 Integrin for Therapy of Multiple Sclerosis” (JACS Au, 2021)
Numbered stars: 1 amine (or outer) side, 2 acyl side, 3 side chain; on linkers, the order of the positions; unused ones are H or OH. Bridge positions count the residues as written; N and C are the ends. Square brackets hold non-standard residues; d marks the D form. Peptide text beside a SMILES is read from it. CO = O=C([*:1])[*:2]; Nlys = NCCCCNCC(=O)O

What was measured:
SafetyScreen44 targets = assay: SafetyScreen44 off-target panel (44 binding, enzymatic and transporter assays); settings: 1 mM; threshold of 40% for binding competition; Figure 5
Method: (§1) Screening of potentially significant off-target effects to binding and enzyme targets was performed via SafetyScreen44 offered by Eurofins Cerep-Panlabs. Visabron c (4–4) was tested at 1 and 0.1 mM. Compound binding was calculated as the percentage of inhibition of the binding of a radioactively labeled ligand specific for each target. The compound enzyme inhibitory effect was calculated as the percentage of inhibition of control enzyme activity. Results showing inhibition higher than 40% were considered to represent significant effects of the tested compound. Results showing inhibition lower than 25% as obtained with 0.1 mM Visabron c (4–4) were not considered significant and were mostly attributable to the variability of the signal around the control level. In each experiment, the respective reference compound was tested concurrently with visabron c (4–4), and the data were compared with historical values determined at Eurofins. The experiment was statistically accepted in accordance with the Eurofins validation standard operating procedure.

Lck kinase = target: T1, Lck kinase (Homo sapiens, UniProt P06239); assay: SafetyScreen44 enzyme inhibition, Lck kinase; type: biochemical
T1 construct: purchased Eurofins Cerep-Panlabs (contract screen) SafetyScreen44
T1 sequence (P06239 whole entry): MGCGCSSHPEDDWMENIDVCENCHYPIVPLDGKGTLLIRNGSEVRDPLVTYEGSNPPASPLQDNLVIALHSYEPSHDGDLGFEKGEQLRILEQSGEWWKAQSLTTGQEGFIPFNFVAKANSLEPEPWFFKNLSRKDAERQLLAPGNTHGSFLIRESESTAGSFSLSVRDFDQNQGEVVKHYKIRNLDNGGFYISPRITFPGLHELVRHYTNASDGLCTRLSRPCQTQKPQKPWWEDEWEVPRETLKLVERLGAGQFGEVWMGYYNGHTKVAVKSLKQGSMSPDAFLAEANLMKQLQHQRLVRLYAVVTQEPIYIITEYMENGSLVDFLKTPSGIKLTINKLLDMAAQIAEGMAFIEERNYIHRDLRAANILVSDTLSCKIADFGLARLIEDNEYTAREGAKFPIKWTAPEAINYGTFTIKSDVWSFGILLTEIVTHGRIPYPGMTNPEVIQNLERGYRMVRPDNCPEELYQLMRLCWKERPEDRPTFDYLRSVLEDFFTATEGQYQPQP
Method: as §1

[1] = Single-dose toxicity: blood cell counting and biochemistry analyses; type: in vivo, C57BL/6 male mice
JAK3 = target: T2, JAK3 (Homo sapiens, UniProt P52333); assay: PhosphoSens CSox-based kinase assay, JAK3; type: biochemical; settings: 1 mM, but not 0.1 mM; Figure 7
T2 construct: purchased Carna 08-046
T2 sequence (P52333 whole entry): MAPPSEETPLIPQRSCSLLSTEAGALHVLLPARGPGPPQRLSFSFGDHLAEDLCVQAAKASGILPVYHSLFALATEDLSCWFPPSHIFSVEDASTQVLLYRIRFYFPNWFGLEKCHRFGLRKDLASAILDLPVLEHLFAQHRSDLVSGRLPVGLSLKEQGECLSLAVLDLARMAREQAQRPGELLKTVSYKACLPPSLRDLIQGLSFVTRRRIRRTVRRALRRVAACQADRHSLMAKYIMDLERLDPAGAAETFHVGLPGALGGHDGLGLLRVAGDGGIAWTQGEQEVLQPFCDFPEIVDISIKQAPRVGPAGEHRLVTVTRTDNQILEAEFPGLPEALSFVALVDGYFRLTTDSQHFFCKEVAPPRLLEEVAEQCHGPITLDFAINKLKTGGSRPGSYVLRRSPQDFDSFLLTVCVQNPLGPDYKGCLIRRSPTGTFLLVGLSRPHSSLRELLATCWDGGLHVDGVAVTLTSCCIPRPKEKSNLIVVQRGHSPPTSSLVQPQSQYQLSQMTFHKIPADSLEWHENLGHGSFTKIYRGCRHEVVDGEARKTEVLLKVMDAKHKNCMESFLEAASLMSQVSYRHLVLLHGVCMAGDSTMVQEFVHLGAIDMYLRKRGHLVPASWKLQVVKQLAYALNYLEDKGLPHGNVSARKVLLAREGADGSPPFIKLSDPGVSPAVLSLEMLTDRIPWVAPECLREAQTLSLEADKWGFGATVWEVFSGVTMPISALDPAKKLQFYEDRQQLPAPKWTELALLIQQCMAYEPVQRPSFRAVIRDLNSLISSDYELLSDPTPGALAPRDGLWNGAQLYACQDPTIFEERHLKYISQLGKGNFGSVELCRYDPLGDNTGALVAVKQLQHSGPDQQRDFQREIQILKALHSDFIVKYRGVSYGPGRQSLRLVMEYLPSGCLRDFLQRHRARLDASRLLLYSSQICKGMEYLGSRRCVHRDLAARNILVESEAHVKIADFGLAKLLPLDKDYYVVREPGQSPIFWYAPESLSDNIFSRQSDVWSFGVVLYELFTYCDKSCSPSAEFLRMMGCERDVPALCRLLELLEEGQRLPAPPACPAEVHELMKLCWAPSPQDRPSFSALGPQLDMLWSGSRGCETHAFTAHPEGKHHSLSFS
Method: Kinase activity was measured using the PhosphoSenstechnology (AssayQuant Technologies Inc., Marlborough, MA) as detailed in the Supporting Information. […]
Visabron c (4-4) safety by in vitro evaluation using PhosphoSens - CSox based kinase assays:
A powerful method was used to measure the activity of recombinant protein kinases using a homogeneous and continuous (kinetic) format, where the level of chelation-enhanced fluorescence (CHEF) that is directly proportional to the amount of phosphorylated, real-time sensors consisting of sulfonamido-oxine (Sox) chromophore, linked to a peptide or protein substrates of selective kinases 6. […]
Kinase activity measurements: Kinase activity was measured continuously using the PhosphoSens® technology (AssayQuant Technologies Inc., Marlborough, MA) according to the manufacturers’ recommendations. This one-step homogeneous assay format uses chelation -enhanced fluorescence via optimized substrate sensors containing the unnatural fluorogenic amino -acid Sox. […]
Final reaction conditions : Protein kinase activity was determined in 54 mM HEPES, pH 7.5, 1 mM ATP, 1.2 mM DTT, 0.012% Brij-35, 0.52 mM EGTA, 10 mM MgCl2, 1% glycerol, 0.2mg/ml BSA, and 15 μM Sox -based sensor. […]

[2] = test system: cyclooxygenase (COX) enzymes; assay: SafetyScreen44 enzyme inhibition, cyclooxygenases; type: biochemical; settings: 1 mM; Figure 6
Method: as §1

[3] = human, in vivo; cited from earlier work
[4] = blood 24 hours after i.v. 500 mg/kg, n=5

Compound: CSCC[C@@H]1NC(=O)[C@H]([C@@H](C)O)NC(=O)CN(C(=O)[C@@H](N)CCCCN)CCCCNC(=O)NCCCCN(CC(=O)N[C@@H](CC(C)C)C(N)=O)C(=O)[C@H](CC(=O)O)NC(=O)[C@H](CC(C)C)NC1=O [visabron c (4–4)] (H-K[Nlys]TMLD[Nlys]L-NH2; linker 2-7 via CO)
- Interaction with the majority of the physiological targets (SafetyScreen44 targets): did not interact
- Inhibitory effect on Lck (Lck kinase; 100 μM, data not shown): not observed
- Inhibition of Lck kinase activity (Lck kinase; 1 mM, Figure 6): strongly inhibited
- Acute tolerability, single dose ([1]; 24 h after i.v. injection, C57BL/6 male mice): 500 mg/kg
- Blood count and electrolytes vs control mice ([1]; 24 hours from i.v. injection, dose printed 250 mg/kg in this block): No significant differences
- ALP [1, 4]: 84±7 U/L
- ALT [1, 4]: 41±4 U/L
- AST [1, 4]: 92±11 U/L
- Albumin [1, 4]: 2.8±0.2 gr/dL
- BUN [1, 4]: 14 ± 3.2 mg/dL
- Calcium [1, 4]: 9.8 ± 1.2 mg/dL
- Chloride [1, 4]: 105 ± 9.2 mmol/L
- Cholesterol [1, 4]: 105 ± 8.6 mg/dL
- Creatinine [1, 4]: 0.3 ± 0.07 mg/dL
- Glucose [1, 4]: 279 ± 31 mg/dL
- HCT [1, 4]: 45±2.5%
- HGB [1, 4]: 14.8 ± 0.5 g/dL
- MCH [1, 4]: 14.8 ± 0.6 pg
- MCHC [1, 4]: 29 ± 1.3 g/dL
- MCV [1, 4]: 48 ± 2.5 fL
- MPV [1, 4]: 5 ± 0.9 fL
- RBC [1, 4]: 9.0±0.9 m/ µL
- RDW [1, 4]: 17.1±0.4%
- WBC [1, 4]: 7.9±0.8 k/µL
- inhibition at 1000 µM (JAK3): 25 to 40%
- Inhibition of cyclooxygenase (COX) enzymes [2]: moderately inhibited

Compound: natalizumab: clinical-grade monoclonal antibody anti-α4β1 produced by Biogen Co. [reference compound]
- Multiple sclerosis patients with anti-natalizumab-neutralizing antibodies [3]: 6–9%
- Patients with neutralizing antibodies toward natalizumab that cause loss of drug efficacy [3]: about 6%
